# Results as given in patent US7432056B2, “Biallelic markers derived from genomic regions carrying genes involved in arachidonic acid metabolism” (Serono Genetics Institute S.A., priority 1999, dated 2008).
# Assay: Hepatotoxicity monitored by serum alanine aminotransferase (ALT) level in a clinical study of zileuton
# Type: in vivo, human
# Source text: In another preferred embodiment, the trait considered was a side effect upon drug treatment; the study involved two populations derived from a clinical study of the anti-asthmatic drug zileuton. The case population was composed of asthmatic individuals treated with Zileuton showing zileuton-associated hepatotoxicity monitored by the serum level of alanine aminotransferase (ALT) and the control population was composed of asthmatic individuals treated with zileuton and having no increased serum level of ALT. Inclusion criteria and association between the biallelic markers of the present invention and zileuton-associated hepatotoxicity are further described below in IV.E. Association of Biallelic Markers of the Invention with Hepatoxicity to Anti-Asthma Drug Zileuton and in Example 5, Association between Side Effects upon Treatment with the Anti-Asthmatic Drug Zileuton (Zyflo™) and the Biallelic Markers of the 12-lipoxygenase Gene.
# Zileuton (Zyflo™) is an active inhibitor of 5-lipoxygenase, the enzyme that catalyzes the formation of leukotrienes from arachidonic acid, indicated for prophylaxis and chronic treatment of asthma. […] The ALT test (serum level of alanine aminotransferase) was used, which is considered the most sensitive indicator of liver injury.
# The side effect examined in this study was the hepatotoxicity experienced by asthmatic individuals as a result of their treatment with Zileuton as part of a clinical study. […] Hepatotoxicity was monitored by measuring the serum levels of alanine aminotransferase (ALT), which is a sensitive indicator of liver cell damage.
# As mentioned above, an association study is more informative if the case-control populations present extreme phenotypes. Therefore, the asthmatic individuals, which were selected for the side effect positive trait (ALT+), corresponded to 89 individuals that presented at least 3 times the upper limit of normal (ULN) level of ALT. On the other side, the asthmatic individuals that were selected for the side effect negative trait (ALT−) corresponded to 208 individuals that presented less than 1×ULN of ALT. ALT+ and ALT− populations corresponded to 4% and 35% respectively of the total asthmatic individuals that participated in this study.
structure (smiles),measurement,setting,value
CC(c1cc2ccccc2s1)N(O)C(N)=O (stereo not shown) [Zileuton],asthmatic individuals that did not experience Zileuton-associated ALT increase compared to ALT levels prior to zileuton intake,"asthmatic individuals treated with zileuton in a clinical study, serum ALT",More than 90%
same,ALT+ population (at least 3 times the upper limit of normal level of ALT) as share of total asthmatic individuals in the study,"asthmatic individuals treated with zileuton, 89 individuals",4%
same,ALT- population (less than 1xULN of ALT) as share of total asthmatic individuals in the study,"asthmatic individuals treated with zileuton, 208 individuals",35%
same,liver function abnormalities in zileuton-treated patients,"elevations of liver function tests during treatment, ALT test",A minority of zileuton-treated patients develop liver function abnormalities
